Measured values: US20230293539A1, “MLL1-WDR5 PROTEIN-PROTEIN INTERACTION INHIBITOR COMPOUNDS AND USES THEREOF” (HUYABIO International, LLC, priority 2022, published 2023)
pIC50: −log10 of the molar value. Like-named read-outs stand apart in the source and are kept apart here.

Columns and labels:
[1] = target: T1, BRD3-BD1 (Homo sapiens, UniProt Q15059); assay: Selectivity panel (Table 3); type: binding
T1 construct: BRD3-BD1

[2] = Metabolite ID in plasma; type: in vitro ADME; settings: HBI-2375 and metabolites in Rat plasma
[3] = PK profile of HBI-2375 in plasma and brain in C57BL/6J mice; type: in vivo; settings: for AUClast / AUC(0-t) / Tmax at 7 day / Cmax at 7 day / Tmax / Cmax / MRT last: C57BL/6J mice; for concentration at 24 h / Kp / AUC(0-t): C57BL/6J; for concentration at 24 h / Kp / AUC(0-t) / Tmax at 7 day / Cmax at 7 day / Tmax / Cmax / MRT last: mouse; for concentration at 24 h: read-out: Mean Brain Concentration, Cmin = 24 h; for AUClast Ratio, group 2 vs 1 / Cmax Ratio, group 2 vs 1: 80 vs 40 mg/kg PO; for AUClast ratios females/males / Cmax ratios females/males: all three dose groups
Protocol: EXAMPLE 4: PK profile of compound of Formula (IIIb) (HBI-2375, HYBI-84) in plasma and brain in C57BL/6J mice: This study was conducted in accordance with the Study Protocol and Pharmaron (Ningbo) TSP's Standard Operating Procedures (SOPs) following all regulatory protocols. This study was conducted under non-GLP environment.
Following single oral gavage administration of HBI-2375 at 40 mg/kg, 80 mg/kg, and 7-day repeat oral gavage administration at 80 mg/kg in C57BL/6J mice, concentrations of HBI-2375 in plasma and brain were determined by LC-MS/MS methods. […] The maximal concentrations of HBI-2375 in brain were all observed at 4 hr post-dose. […] The exposure of HBI-2375 in plasma and brain of females were closed to that of males, the ratios were 0.989-1.22 for plasma, and 1.10-1.34 for brain.

[4] = both sexes, single PO 40 mg/kg, brain, mean
[5] = both sexes, single PO 40 mg/kg, plasma, mean
[6] = both sexes, single PO 80 mg/kg, brain, mean
[7] = both sexes, single PO 80 mg/kg, plasma, mean
[8] = mice, 7-day consecutive dosing 80 mg/kg
[9] = mice, all dose groups, listed as HBI-2375

T1 sequence (Q15059 34-140 limits assumed): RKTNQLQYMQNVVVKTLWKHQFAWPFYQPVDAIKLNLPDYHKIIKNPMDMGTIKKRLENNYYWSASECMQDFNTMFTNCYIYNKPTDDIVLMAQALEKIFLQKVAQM

## Cc1c(F)c(N)cc(C(=O)Nc2cc(-n3cc(C(=O)N4CCN(C)CC4)nn3)c(F)cc2N2C[C@@H](C)N(C)[C@@H](C)C2)c1Cl [HYBI-084, 5-amino-2-chloro-4-fluoro-N-(4-fluoro-5-(4-(4-methylpiperazine-1-carbonyl)-1H-1,2,3-triazol-1-yl)-2-((3S,5R)-3,4,5-trimethylpiperazin-1-yl)phenyl)-3-methylbenzamide]
[1]
  pIC50: < 6.00
[2]
  Relative Abundance (UV Peak Area % Total): 93.47%
[3]; 7-day repeat PO 80 mg/kg, brain, female
  AUClast: 11446 ng·h/g
[3]; 7-day repeat PO 80 mg/kg, brain, male
  AUClast: 8555 ng·h/g
[3]; 7-day repeat PO 80 mg/kg, brain, mean
  AUClast: 10001 ng·h/g
[3]; single PO 40 mg/kg, brain, female
  AUClast: 2179 ng·h/g
[3]; single PO 40 mg/kg, brain, male
  AUClast: 1879 ng·h/g
[3]; single PO 40 mg/kg, brain, mean
  AUClast: 2029 ng·h/g
[3]; single PO 80 mg/kg, brain, female
  AUClast: 6129 ng·h/g
[3]; single PO 80 mg/kg, brain, male
  AUClast: 5559 ng·h/g
[3]; single PO 80 mg/kg, brain, mean
  AUClast: 5844 ng·h/g
[3]; brain, po, 80 mg/kg, Repeat PO Mouse at 80 mg/kg
  concentration at 24 h: 136 ng/g
[3]; brain, po, 80 mg/kg, Single PO Mouse at 80 mg/kg
  concentration at 24 h: 55 ng/g
[3]; both sexes, brain, oral, 40 mg/kg, mice, single dosing 40 mg/kg, read-out: AUC exposure in brain as % of that in plasma
  Kp: 0.283 to 0.332
[3]; both sexes, brain, oral, 80 mg/kg, mice, single dosing 80 mg/kg, read-out: AUC exposure in brain as % of that in plasma
  Kp: 0.361 to 0.388
[3]; both sexes, brain, oral, mice, all dose groups, read-out: brain exposure as % of AUC in plasma
  Kp: 0.283 to 0.588
[3]; both sexes, plasma, po, 40 mg/kg, single PO 40 mg/kg, mean
  AUC(0-t): 6600 ng·h/mL
[3]; both sexes, plasma, po, 80 mg/kg, 7-day repeat PO 80 mg/kg, mean
  AUC(0-t): 17700 ng·h/mL
[3]; both sexes, plasma, po, 80 mg/kg, single PO 80 mg/kg, mean
  AUC(0-t): 15600 ng·h/mL
[3]; both sexes, 7-day repeat PO 80 mg/kg, brain
  Tmax at 7 day: 4 h
[3]; both sexes, 7-day repeat PO 80 mg/kg, brain, mean
  Cmax at 7 day: 807 ng/g
[3]; both sexes, 7-day repeat PO 80 mg/kg, plasma
  Tmax at 7 day: 1 h
[3]; both sexes, 7-day repeat PO 80 mg/kg, plasma, mean
  Cmax at 7 day: 2530 ng/mL
[3]; both sexes, single PO 40 mg/kg, brain
  Tmax: 4 h
[3]; [4]
  Cmax: 180 ng/g
  MRT last: 8.15 h
[3]; both sexes, single PO 40 mg/kg, plasma
  Tmax: 0.5 h
[3]; [5]
  Cmax: 1140 ng/mL
  MRT last: 5.26 h
[3]; both sexes, single PO 80 mg/kg, brain
  Tmax: 4 h
[3]; [6]
  Cmax: 528 ng/g
  MRT last: 8.21 h
[3]; both sexes, single PO 80 mg/kg, plasma
  Tmax: 0.5 h
[3]; [7]
  Cmax: 3970 ng/mL
  MRT last: 5.16 h
[3]; female, brain, po, 40 mg/kg, mice, single PO 40 mg/kg, female, read-out: AUClast Ratio Brain/Plasma
  Kp: 0.332
[3]; female, brain, po, 80 mg/kg, mice, repeat PO 80 mg/kg, female, read-out: AUClast Ratio Brain/Plasma
  Kp: 0.588
[3]; female, brain, po, 80 mg/kg, mice, single PO 80 mg/kg, female, read-out: AUClast Ratio Brain/Plasma
  Kp: 0.388
[3]; female, plasma, po, 40 mg/kg, single PO 40 mg/kg
  AUC(0-t): 6560 ng·h/mL
[3]; female, plasma, po, 80 mg/kg, 7-day repeat PO 80 mg/kg
  AUC(0-t): 19500 ng·h/mL
[3]; female, plasma, po, 80 mg/kg, single PO 80 mg/kg
  AUC(0-t): 15800 ng·h/mL
[3]; male, brain, po, 40 mg/kg, mice, single PO 40 mg/kg, male, read-out: AUClast Ratio Brain/Plasma
  Kp: 0.283
[3]; male, brain, po, 80 mg/kg, mice, repeat PO 80 mg/kg, male, read-out: AUClast Ratio Brain/Plasma
  Kp: 0.536
[3]; male, brain, po, 80 mg/kg, mice, single PO 80 mg/kg, male, read-out: AUClast Ratio Brain/Plasma
  Kp: 0.361
[3]; male, plasma, po, 40 mg/kg, single PO 40 mg/kg
  AUC(0-t): 6640 ng·h/mL
[3]; male, plasma, po, 80 mg/kg, 7-day repeat PO 80 mg/kg
  AUC(0-t): 16000 ng·h/mL
[3]; male, plasma, po, 80 mg/kg, single PO 80 mg/kg
  AUC(0-t): 15400 ng·h/mL
[3]; [8]
  drug accumulation in brain: no obvious drug accumulation
  drug accumulation in plasma: no obvious drug accumulation
[3]; mice, 7-day repeat PO 80 mg/kg, brain, both sexes
  mean concentration at 24 hr post-dose as % of Cmax: 14.4-18.9%
[3]; mice, 7-day repeat PO 80 mg/kg, plasma, both sexes
  mean concentration at 24 hr post-dose as % of Cmax: 2.68-3.94%
[3]; mice, brain, female
  AUClast Ratio, group 2 vs 1: 2.81
  Cmax Ratio, group 2 vs 1: 2.89
[3]; mice, brain, male
  AUClast Ratio, group 2 vs 1: 2.96
  Cmax Ratio, group 2 vs 1: 3.00
[3]; mice, plasma, female
  AUClast Ratio, group 2 vs 1: 2.41
  Cmax Ratio, group 2 vs 1: 3.47
[3]; mice, plasma, male
  AUClast Ratio, group 2 vs 1: 2.32
  Cmax Ratio, group 2 vs 1: 3.50
[3]; mice, all dose groups
  distribution: distributed to brain
  duration of brain exposure: 24 h
[3]; [9]
  gender-related differences in exposure in brain: No gender-related differences
  gender-related differences in exposure in plasma: No gender-related differences
[3]; mice, brain
  AUClast ratios females/males: 1.10-1.34
  Cmax ratios females/males: 1.11-1.24
[3]; mice, brain, both sexes
  AUClast ratios 7-day repeat vs single-dose 80 mg/kg: 1.54-1.87
  AUClast ratios 80 vs 40 mg/kg single dose: 2.81-2.96
  Cmax ratios 7-day repeat vs single-dose 80 mg/kg: 1.44-1.60
[3]; mice, plasma
  AUClast ratios females/males: 0.989-1.22
  Cmax ratios females/males: 0.967-1.27
[3]; mice, plasma, both sexes
  AUClast ratios 7-day repeat vs single-dose 80 mg/kg: 1.04-1.23
  AUClast ratios 80 vs 40 mg/kg single dose: 2.32-2.41
